Results: patent US20100215759A1 (priority 2009, published 2010)
Like-named read-outs stand apart in the source and are kept apart here.

Assays:
[1] = biological target: T1, CB2 receptors (Mus musculus, UniProt P47936); test: biochemical; type: binding
T1 construct: the complete brain (excluding the cerebellum) and the spleen were quickly dissected and kept in ice; from tissue; host or cells: mouse spleen, membrane preparation
Description: (§1) The affinity of the synthesized compounds towards the CB1 and CB2 cannabinoidergic receptors was evaluated in vitro by radioreceptor binding studies using the method reported hereinunder.
(§2) The technique of the receptor binding allows to establish if, and with which affinity and specificity, a specific compound binds to a particular receptor. To evaluate the affinity of a specific compound to a particular receptor it is necessary to challenge in a particular tissue preparation wherein those specific receptors are present the compound to be tested with a radioactive labelled compound whose affinity for the same receptors is known. […] The amount of radioactivity present in the receptor-compound complex allows furthermore to estimate with great accuracy the amount of compound bound to the receptor. By said method it is therefore possible to establish quickly the affinity of a new compound towards a specific receptor and thus to determine its pharmacological activity. With the same experimental protocol it is possible to evaluate the affinity of the compound towards other receptors and thus establish its specificity degree toward said other receptors.
(§3) The food and water were ad libitum.
(§4) The procedure adopted, based on the use of the compound [^3H]-CP-55,940 (New England Nuclear, Boston, Mass., USA), requires the use of the mouse brain as biological tissue for the evaluation of the affinity towards the CB1 receptors and of the mouse spleen for the affinity assay for the CB2 receptors.
(§5) The animals were sacrificed by cervical dislocation and the complete brain (excluding the cerebellum) and the spleen were quickly dissected and kept in ice.
(§6) The tissue was homogenized in 15 volumes (weight/volume) of TME buffer (50 Mm Tris, 1 mM EDTA and 3 mM MgCl2, pH 7.4) by an Ultra-Turrax and subsequently centrifuged for 10 minutes at 1086×g in a centrifuge refrigerated at 4° C. The recovered supernatant was centrifuged at 45,000×g for 30 minutes at 4° C. by using a Beckman SW41 rotor and the obtained pellet was resuspended in 50 volumes of TME.
(§7) The thus obtained membranes (50-80 μg of proteins) were incubated in the presence of 1 nM of [^3H]-CP55.940 for 1 hour at 30° C. in a final volume of 0.5 ml of TME buffer containing 5 mg/ml of bovine serum albumin (BSA). The non specific binding was measured in the presence of CP55.940 at a 1 μM concentration.
(§8) All the experiments were carried out in polypropylene test tubes pretreated with Sigma-Cote (Sigma Chemical Co. Ltd., Poole, UK) for reducing non specific binding.
(§9) In order to determine the competitive inhibition binding curves, eight different concentrations of each compound were used.
(§10) Incubation was stopped by addition of TME buffer (at 4° C.) containing 5 mg/ml of BSA, and subsequent filtration under vacuum by Whatman GFC filters pretreated with 0.5% of polyethylamine (PEI) and by using a filtering device (Brandell, Gaithersburg, Md., USA). The filters were washed 3 times with […] of Tris HCl buffer (pH 7.4, 4° C.) containing 1 mg/ml of BSA and separately placed in plastic vials containing 4 ml of scintillating liquid (Ultima Gold MV, Packard).
(§11) The radioactivity present in the filters was determined by a scintillator spectrophotometer (Tricarb® 2100, Packard, Meridien, USA).
(§12) Protein determination was carried out by the Bradford method by using the protocol and the reactants supplied by Bio-Rad (Milano, Italy).

[2] = biological target: T2, CB1 receptors (Mus musculus, UniProt P47746); test: biochemical; type: binding
T2 construct: the complete brain (excluding the cerebellum) and the spleen were quickly dissected and kept in ice; from tissue; host or cells: mouse brain (excluding cerebellum), membrane preparation
T2 sequence (P47746 whole entry): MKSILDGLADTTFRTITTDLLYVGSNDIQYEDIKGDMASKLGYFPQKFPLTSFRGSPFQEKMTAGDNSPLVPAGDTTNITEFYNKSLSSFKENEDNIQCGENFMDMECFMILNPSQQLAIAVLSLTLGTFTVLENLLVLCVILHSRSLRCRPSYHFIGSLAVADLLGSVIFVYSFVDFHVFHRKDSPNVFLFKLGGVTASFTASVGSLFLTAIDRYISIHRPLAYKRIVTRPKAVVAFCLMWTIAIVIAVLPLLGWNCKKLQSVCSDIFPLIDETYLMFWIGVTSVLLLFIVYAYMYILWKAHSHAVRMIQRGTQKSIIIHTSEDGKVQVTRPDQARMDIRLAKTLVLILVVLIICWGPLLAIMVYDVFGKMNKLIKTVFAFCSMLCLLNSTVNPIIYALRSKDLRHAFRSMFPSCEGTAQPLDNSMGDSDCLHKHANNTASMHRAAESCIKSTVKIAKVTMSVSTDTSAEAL
Description: as §1, §2, §3, §4, §5, §6, §7, §8, §9, §10, §11, §12

[3] = system: mice; test: Hypothermia test in vivo (rectal temperature after i.p. administration); settings: for Body Temperature: 40 mg/kg i.p.
Description: It is known that the compounds having a cannabomimetic activity show in vivo the following effects: hypoactivity, hypothermia, analgesia and catalepsy (B. R. Martin et al., Pharmacol. Biochem. Behav.; 1991, 40, 471-478; P. B. Smith et al.; J. Pharmacol. Exp. Ther.; 1994, 270, 219-227). In order to display thermoregulating activity, the compounds acting towards the cannabinoidergic receptors must be able to pass the haematoencephalic barrier since the central site of said temperature regulating receptors is positioned in the preoptical front core of the hypothalamus (S. M. Rawls et al.; J. Pharmacol. Exp. Ther.; 2002, 303, 395-402). After treatment with CB1 agonist compounds passing the haemato-encephalic barrier, the cannabimimetic activity is evidenced by a reduction of the body temperature. CB1 antagonist compounds that pass the haemato-encephalic barrier, have no influence on the body temperature and show an antagonist activity towards the reference CB1 agonists as WIN 55.212-2, thus hindering the hypothermia induced by the latter.
The tests have been carried out in the experimental animal (mice) according to the indications of M. Rinaldi-Carmona et al. in FEBS Letters; 1994, 350, 240-244. Rectal temperature in mice was determined by an electronic thermometer inserted at a 2 mm depth. The measurements were carried out on mice acclimatized for one hour. […]
The experiment was carried out with the compound of example 3.1. Said compound was dispersed in a carrier formed of a physiological solution added with Tween 80 (3 drops). The so prepared samples were used for treating the animals at a dose of the compound of 40 mg/kg of body weight. The blank was the carrier.
Each test was repeated on ten animals: the results obtained are therefore the average of the determinations made on ten animals.

[4] = mouse spleen membranes, 1 nM [3H]-CP55.940, read-out: CB2 (spleen) Ki
[5] = mouse brain membranes, 1 nM [3H]-CP55.940, read-out: CB1 (brain) Ki

T1 sequence (P47936 whole entry): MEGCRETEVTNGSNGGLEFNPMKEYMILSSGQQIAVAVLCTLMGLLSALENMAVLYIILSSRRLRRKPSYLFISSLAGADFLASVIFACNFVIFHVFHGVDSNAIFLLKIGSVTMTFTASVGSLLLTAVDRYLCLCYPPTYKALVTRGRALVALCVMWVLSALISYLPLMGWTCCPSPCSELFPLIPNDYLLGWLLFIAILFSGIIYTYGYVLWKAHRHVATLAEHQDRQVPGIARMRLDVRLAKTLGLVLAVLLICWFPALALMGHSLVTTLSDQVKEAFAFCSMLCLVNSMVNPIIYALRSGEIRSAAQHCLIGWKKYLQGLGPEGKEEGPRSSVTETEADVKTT

| SMILES | Ki [1, 4] [nM] | Ki [2, 5] [nM] | Ki [1] [nM] | Ki [2] [nM] | Reduction of body temperature versus the carrier ([3]; 40 mg/Kg) | Body Temperature ([3]; 0 minutes from administration) [°C] | Body Temperature ([3]; 15 minutes from administration) [°C] | Body Temperature ([3]; 30 minutes from administration) [°C] | Body Temperature ([3]; 60 minutes from administration) [°C] | Body Temperature ([3]; 90 minutes from administration) [°C] | Body Temperature ([3]; 120 minutes from administration) [°C] |
| --- | --- | --- | --- | --- | --- | --- | --- | --- | --- | --- | --- |
| CCOC(=O)c1nn(-c2ccc(S(N)(=O)=O)cc2)c2c1CCc1sccc1-2 [Compound (XA), 1-(4′-sulphonamidophenyl)-4,5-dihydro-1H-thieno[2,3-g]indazol-3-ethyl carboxylate] | > 5000 | > 5000 | – | – | – | – | – | – | – | – | – |
| NC(=O)c1nn(-c2ccc(S(N)(=O)=O)cc2)c2c1CCc1sccc1-2 [Compound (XB), 1-(4′-sulphonamidophenyl)-4,5-dihydro-1H-thieno[2,3-g]indazol-3-carboxamide] | > 5000 | > 5000 | – | – | – | – | – | – | – | – | – |
| Cc1ccc(Cn2nc(C(=O)NCC3CCC4CC3C4(C)C)c3c2-c2sc(C)cc2C3)cc1 (stereo not shown) [Example 3.1, N-myrtanyl-6-methyl-1-(4′-methylbenzyl)-1,4-dihydrothieno[3′,2′:4,5]cyclopenta[1,2-c]pyrazol-3-carboxamide] | – | – | 48.3 ± 2.6 | 83.6 ± 14.6 | significantly reduce the body temperature | 37.9 | 36.1 | 34.8 | 35.0 | 36.7 | 37.2 |
